Measured values from patent US20130130306A1, “ZN (II) BASED COLORIMETRIC SENSOR AND PROCESS FOR THE PREPARATION THEREOF” (COUNCIL OF SCIENTIFIC & INDUSTRIAL RESEARCH, priority 2010, published 2013).

Test system: eukaryotic and prokaryotic (Gram +ve/Gram −ve) cells
Test: Staining of eukaryotic and prokaryotic cells, time needed and differentiation
Format: cell-based
Procedure: Using the present Zn(II)-reagent (L.Zn) in presence of α-CD, eukaryotic and prokaryotic (Gram +ve/Gram −ve) cells could be stained with only 2 minutes incubation; while for the previous reagent (1.Zn) cells were needed to be incubated for 10 minutes for color development. Further, intensity of color of the stained cell (using present Zn(II)-complex was much more intense as compared to that reported earlier.
We also explored the possibility of using L.Zn/L.Zn.α-CD as the staining agent for prokaryotes (Gram +ve and Gram −ve bacterial cells). […] As expected stained cells for Gram +ve bacteria appeared longer as compared to those of the stained Gram −ve bacteria. The difference in the staining intensity for two different bacteria with the L.Zn.α-CD (Scheme 2) could be much better understood after going into the depth of cell biology of each bacterial cells and the detailed biochemistry involved while staining; besides, difference in cell structure and cell wall composition of the respective bacteria. […] Changes on the cell surfaces on binding of the dye, L.Zn (Scheme 1, Formula 1A) were also evident from the SEM images recorded for Gram −ve and Gram +ve bacteria, in absence and presence of staining agent (FIGS. 11C to 11F). […] The growth profile of Eukaryotic Yeast cells (Saccharomyces cerevisiae) and Prokaryotic bacterial cells ([…]) in an aqueous culture medium in absence and presence of L.Zn (Scheme 1, Formula 1A) are shown in FIG. 12. Change in absorbance (at λmax=600 nm) vs time (t) was plotted up to 30 h; as no appreciable change in growth was observed thereafter. […] FIGS. 12a, 12c and 12e show the actual growth curve of Saccharomyces cerevisiae, Pseudomonas fluorescence and Bacillus megaterium, respectively with time. While, FIGS. 12b, 12d and 12f show relative build up of ATP in cytoplasm with time for Saccharomyces cerevisiae, Pseudomonas fluorescence and Bacillus megaterium, respectively in presence of L.Zn (Scheme 1, Formula 1A) (D1) and L.Zn.α-CD (Scheme 2) (D2). […]

CN(C)c1ccc(N=Nc2ccc(S(=O)(=O)N3CCCNCCNCCCNCC3)cc2)cc1.O=[N+]([O-])[O-].O=[N+]([O-])[O-].[Zn+2] [L.Zn]
incubation time needed for staining (in presence of α-CD): 2 min
distinguishing Gram +ve and Gram −ve bacteria (through different color intensities and shape of the stained cells): could also distinguish Gram +ve and Gram −ve bacteria
time in which staining takes place (without α-CD): 10 to 20 min
